Earlier results in patent publication US20090304869A1, “Peptides Having an Ace Inhibiting Effect” (priority 2005, published 2009).

Key:
ACE = ACE (Homo sapiens, UniProt P12821); conditions: peptides in fermented milk products
[1] = in sour milk, hypertensive humans

ACE, sequence (P12821 30-1306, species assumed): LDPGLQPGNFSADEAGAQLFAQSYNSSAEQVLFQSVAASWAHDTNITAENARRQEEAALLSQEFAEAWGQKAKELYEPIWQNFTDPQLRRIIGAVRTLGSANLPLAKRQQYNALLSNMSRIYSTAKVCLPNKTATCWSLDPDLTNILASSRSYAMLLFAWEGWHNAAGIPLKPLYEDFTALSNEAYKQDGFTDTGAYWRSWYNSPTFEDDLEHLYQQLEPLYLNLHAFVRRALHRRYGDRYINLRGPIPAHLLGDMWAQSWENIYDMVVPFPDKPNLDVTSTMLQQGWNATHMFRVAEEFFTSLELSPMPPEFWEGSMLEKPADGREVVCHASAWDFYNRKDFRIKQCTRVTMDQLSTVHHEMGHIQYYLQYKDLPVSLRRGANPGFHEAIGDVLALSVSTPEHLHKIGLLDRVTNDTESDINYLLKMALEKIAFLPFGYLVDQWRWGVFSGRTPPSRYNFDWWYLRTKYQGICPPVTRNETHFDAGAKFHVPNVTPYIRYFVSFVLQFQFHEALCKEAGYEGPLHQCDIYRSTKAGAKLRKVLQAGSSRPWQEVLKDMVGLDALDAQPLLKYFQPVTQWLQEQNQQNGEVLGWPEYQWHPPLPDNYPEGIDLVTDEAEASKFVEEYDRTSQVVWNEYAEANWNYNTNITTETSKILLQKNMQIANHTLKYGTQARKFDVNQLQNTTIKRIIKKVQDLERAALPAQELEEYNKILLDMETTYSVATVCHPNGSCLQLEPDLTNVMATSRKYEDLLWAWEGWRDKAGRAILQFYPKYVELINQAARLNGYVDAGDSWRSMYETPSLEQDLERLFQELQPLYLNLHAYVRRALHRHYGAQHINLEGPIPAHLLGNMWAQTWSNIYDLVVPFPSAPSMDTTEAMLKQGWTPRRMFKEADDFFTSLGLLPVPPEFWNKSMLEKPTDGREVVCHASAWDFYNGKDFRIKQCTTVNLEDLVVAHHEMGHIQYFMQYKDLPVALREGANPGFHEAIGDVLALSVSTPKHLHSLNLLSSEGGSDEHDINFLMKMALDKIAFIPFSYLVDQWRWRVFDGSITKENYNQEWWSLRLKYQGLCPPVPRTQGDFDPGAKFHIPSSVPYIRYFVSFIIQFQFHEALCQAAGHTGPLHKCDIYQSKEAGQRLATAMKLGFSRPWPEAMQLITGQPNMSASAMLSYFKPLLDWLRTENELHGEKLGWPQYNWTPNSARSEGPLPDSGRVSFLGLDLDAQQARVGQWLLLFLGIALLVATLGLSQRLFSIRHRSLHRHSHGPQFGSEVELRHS

in vitro ACE inhibition (ACE): showed in vitro ACE inhibition
SMILES: CC[C@H](C)[C@H](N)C(=O)N1CCC[C@H]1C(=O)N1CCC[C@H]1C(=O)O [IPP]
blood pressure lowering effect [1]: blood pressure lowering effect
